We go through three compounds from publication PMC2655144 (Biochemistry, 2008).

Molecules are shown by their SMILES. “And” between values parts separate entries of the source, which are not always exact repeats. Equal values may be shown once. Read-outs that look alike come from different tables or passages of the source.

One assay relates to AChE. The note with it: cited from earlier work; for i2 for thioflavin T with A-site ligand: ternary complex with thioflavin T.
The next assay deals with carbamoylated AChE (EC) (Homo sapiens, UniProt P22303). In words: Carbachol binding to carbamoylated AChE.
Sequence of carbamoylated AChE (EC) (P22303 32-574 limits assumed): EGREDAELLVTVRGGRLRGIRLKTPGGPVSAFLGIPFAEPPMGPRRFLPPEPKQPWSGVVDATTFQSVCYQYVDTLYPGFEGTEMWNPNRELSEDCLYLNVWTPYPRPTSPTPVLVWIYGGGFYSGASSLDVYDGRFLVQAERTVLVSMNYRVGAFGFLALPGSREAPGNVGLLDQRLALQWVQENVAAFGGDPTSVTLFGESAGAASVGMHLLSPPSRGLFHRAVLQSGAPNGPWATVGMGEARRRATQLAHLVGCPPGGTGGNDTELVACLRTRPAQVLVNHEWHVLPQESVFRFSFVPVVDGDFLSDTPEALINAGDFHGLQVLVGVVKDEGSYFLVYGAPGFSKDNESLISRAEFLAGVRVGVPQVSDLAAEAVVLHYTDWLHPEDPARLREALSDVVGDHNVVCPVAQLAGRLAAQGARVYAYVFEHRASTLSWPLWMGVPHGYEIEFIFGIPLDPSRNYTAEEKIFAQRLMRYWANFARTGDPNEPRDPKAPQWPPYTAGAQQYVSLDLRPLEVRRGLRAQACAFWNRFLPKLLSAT
For the next assay, the target named is recombinant human AChE (Homo sapiens, UniProt P22303). The class given is biochemical. The note with it: for k12 + k21: 15.6 μM thioflavin T; for k122: two-component fit, minor component E2.
Sequence of recombinant human AChE (P22303 32-614): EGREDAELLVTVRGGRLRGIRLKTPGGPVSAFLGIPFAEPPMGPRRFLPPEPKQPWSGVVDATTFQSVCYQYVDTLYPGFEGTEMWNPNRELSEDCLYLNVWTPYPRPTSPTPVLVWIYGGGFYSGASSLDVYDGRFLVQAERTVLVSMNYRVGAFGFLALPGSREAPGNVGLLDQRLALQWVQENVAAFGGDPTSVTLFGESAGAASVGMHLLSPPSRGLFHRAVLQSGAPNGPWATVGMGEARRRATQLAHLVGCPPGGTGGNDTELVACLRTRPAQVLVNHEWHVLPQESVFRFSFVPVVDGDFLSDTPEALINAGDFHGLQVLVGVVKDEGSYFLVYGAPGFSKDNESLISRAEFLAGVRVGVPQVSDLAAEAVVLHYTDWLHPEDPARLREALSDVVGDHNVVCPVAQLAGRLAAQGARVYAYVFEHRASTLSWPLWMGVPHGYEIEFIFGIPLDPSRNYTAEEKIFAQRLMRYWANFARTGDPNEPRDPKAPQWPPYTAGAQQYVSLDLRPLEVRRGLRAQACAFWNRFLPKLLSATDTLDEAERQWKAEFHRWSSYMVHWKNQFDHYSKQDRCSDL
Assay [1] concerns the target free AChE (E), recombinant human AChE (Homo sapiens, UniProt P22303). Conditions: cited from earlier work.
The mark [2] stands for this setting: maximum parameter range fit, iEC fixed at 1e-6.
[3] abbreviates: maximum parameter range fit, iECKECS fixed at 8 mM.
Setting [4] is: maximum parameter range fit, i fixed at 1e-6.
[5] abbreviates: maximum parameter range fit, iKs fixed at 12 mM.

Sequence of free AChE (E), recombinant human AChE (P22303 32-614): as above

Take `CC(=O)Nc1cccc([N+](C)(C)C)c1` [ATMA, 3-(acetamido)-N,N,N-trimethylanilinium]: the “i2 for propidium with A-site ligand” value with AChE (ternary complex with propidium) is reported as 9.5. Besides, the “i2 for thioflavin T with A-site ligand” value in the assay on AChE was 3.1.
With `C[N+](C)(C)CCOC(N)=O` [carbachol, carbamoylcholine chloride], the iEC is listed as 1.23 at carbamoylated AChE (EC) and 3.5 at carbamoylated AChE (EC) (setting [3]). For the same compound, the Kd on carbamoylated AChE (EC) (KECM+S, combined binding to A- and P-sites in EC, iEC2 fixed at 0.90) came out at 1700 ± 400 µM; at carbamoylated AChE (EC) (KECM+S, maximum parameter range fit, iEC fixed at 1e-6), 1660 µM; on carbamoylated AChE (EC) (KECM+S, maximum parameter range fit, iECKECS fixed at 8 mM) it was 1660 µM; on carbamoylated AChE (EC) (KECM, A-site in EC, iEC2 fixed at 0.90), 1800 ± 500 µM; at carbamoylated AChE (EC) (KECM, maximum parameter range fit, iEC fixed at 1e-6), 1660 µM; at carbamoylated AChE (EC) (iECKECS, P-site in EC, iEC2 fixed at 0.90) it was 32000 ± 2000 µM. For the same compound, the Kd at carbamoylated AChE (EC) (iECKECS, maximum parameter range fit, iEC fixed at 1e-6) was 34000 µM; in assay [1] (read-out: iKs, P-site in E, i2 fixed at 0.90) it was 26000 ± 4000 µM. At carbamoylated AChE (EC) (for the three sets in Tables 1 and 2), this compound came in with a fECSL/fESL of 1.14 ± 0.03. Moreover, at carbamoylated AChE (EC) (from fECL/fECSL), the “increase of fluorescence of bound thioflavin T when carbachol bound to the A-site in ternary complex with EC” value was “about 20%”. For the same compound, the fECL/fECSL at carbamoylated AChE (EC) (iEC2 fixed at 0.90) was 0.83 and 0.83 ± 0.01; at carbamoylated AChE (EC) (setting [2]), 0.83; at carbamoylated AChE (EC) (setting [3]), 0.83. The results for the iEC2 at carbamoylated AChE (EC) (setting [2]) and on carbamoylated AChE (EC) (setting [3]) were 0.96 and 0.21, respectively. Further, the “k12 + k21” value on recombinant human AChE (1.67 mM carbachol, one-component fit (eq 6)) was determined as 5.94 ± 0.02 min⁻¹; on recombinant human AChE (1.67 mM carbachol, two-component fit (eq A2)), 6.53 ± 0.02 min⁻¹; at recombinant human AChE (60 mM carbachol, one-component fit (eq 6)), 23.8 ± 0.3 min⁻¹; at recombinant human AChE (60 mM carbachol, two-component fit (eq A2)), 27.0 ± 0.4 min⁻¹. Also, the k122 on recombinant human AChE (1.67 mM carbachol) is 0.68 ± 0.04; at recombinant human AChE (60 mM carbachol) it was 4.3 ± 0.3. Besides, the i in assay [1] is on record as 0.92; in assay [1] (setting [5]), 1.59. The fEL/fESL in assay [1] (setting [4]) is 1.50; in assay [1] (setting [5]), 1.50; in assay [1] (one-site fit, (iKS)^−1 fixed at 0), 1.85. The values for the i2 in assay [1] (setting [4]) and in assay [1] (setting [5]) were 1.08 and 0.42, respectively.
As to `CC[N+](C)(C)c1cccc(O)c1` [edrophonium], the “i2 for thioflavin T with A-site ligand” value in the assay with AChE is listed as 1.12.
